Laboratory results published in PubChem BioAssay (NCI).
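Method: 48-hour compound exposure of cells in 96-well plates, five concentrations, linear interpolation of endpoints. The concentration for 50% growth inhibition is given as GI50. TGI marks complete inhibition of growth.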

Tests used:
Test in all cases: growth of human tumour cells (NCI), 48 h
[1] = test system: U251 CNS
[2] = test system: NCI-H23 lung
[3] = test system: HT29 colon
[4] = test system: HOP-62 NSCLC
[5] = test system: NCI-H522 lung
[6] = test system: UACC-257 melanoma
[7] = test system: NCI-H460 lung
[8] = test system: HS 578T breast
[9] = test system: HCC-2998 colon
[10] = test system: UACC-62 melanoma

## CC(C)[C@@H](CS(=O)(=O)C(C)C)N1C(=O)[C@@](C)(CC(=O)O)C[C@H](c2cccc(Cl)c2)[C@H]1c1ccc(Cl)cc1
[1]
  GI50: 7.86 µM
  TGI: 25.3 µM
[2]
  GI50: 17 µM
  TGI: 56.8 µM
[3]
  GI50: 26.6 µM
  TGI: > 90.1 µM
[4]
  GI50: 17.2 µM
  TGI: 56.7 µM
[5]
  GI50: 17.8 µM
  TGI: 51.5 µM
[6]
  GI50: 0.381 µM
  TGI: 6.82 µM
[7]
  GI50: 0.388 µM
  TGI: 15.1 µM
[8]
  GI50: 17.1 µM
  TGI: 72.1 µM
[9]
  GI50: 16.7 µM
  TGI: 37.7 µM
[10]
  GI50: 0.333 µM
  TGI: 11.3 µM

## Cc1ccccc1NC(=O)c1sc2nc3c(cc2c1N)C(=O)CCC3
[1]
  GI50: 1.67 µM
  TGI: 21.4 µM
[2]
  GI50: 4.62 µM
  TGI: > 100 µM
[3]
  GI50: 1.59 µM
  TGI: 23.7 µM
[4]
  GI50: 7.28 µM
  TGI: > 100 µM
[5]
  GI50: 0.896 µM
  TGI: 3.5 µM
[6]
  GI50: 1.97 µM
  TGI: > 100 µM
[7]
  GI50: 2.63 µM
  TGI: 10.6 µM
[8]
  GI50: 1.71 µM
  TGI: 5.56 µM
[9]
  GI50: 3.21 µM
  TGI: > 100 µM
[10]
  GI50: 0.999 µM
  TGI: > 100 µM

## COc1cccc2c1C(=O)c1c(O)c3c(c(O)c1C2=O)C[C@@](O)(/C(C)=N\O)C[C@@H]3OC1CC(N)C(O)C(C)O1 (stereo not given in full)
[1]
  TGI: 7.73 µM
[2]
  TGI: 3.8 µM
[3]
  TGI: 13.2 µM
[4]
  TGI: 6.46 µM
[5]
  TGI: 1.73 µM
[6]
  TGI: 6.02 µM
[7]
  TGI: 8.16 µM
[8]
  TGI: 6.58 µM
[9]
  TGI: 3.04 µM
[10]
  TGI: 2.94 µM

## COc1cc2c3c(n(C)c(=O)c2cc1OC)-c1cc2c(cc1/C3=C\[C@@H](N)CCCCN)OCO2
[1]
  GI50: < 0.0209 µM
  TGI: 7.41 µM
[2]
  GI50: 1.29 µM
  TGI: 20.5 µM
[3]
  GI50: 0.337 µM
  TGI: > 100 µM
[4]
  GI50: 3.14 µM
  TGI: 26.9 µM
[5]
  GI50: 1.37 µM
  TGI: > 23.2 µM
[6]
  GI50: 5.24 µM
  TGI: > 52.8 µM
[7]
  GI50: 0.707 µM
  TGI: > 82.9 µM
[8]
  GI50: 15.9 µM
  TGI: 81.8 µM
[9]
  GI50: 2.99 µM
  TGI: 45.9 µM
[10]
  GI50: 0.467 µM
  TGI: 7.38 µM

## C[C@@]12CCC[C@@](C)(C(=O)O)C1CC[C@@]13CC(=O)[C@@](CO)(CCC12)C3 (stereo not given in full)
[1]
  GI50: > 100 µM
  TGI: > 100 µM
[2]
  GI50: > 100 µM
  TGI: > 100 µM
[3]
  GI50: > 100 µM
  TGI: > 100 µM
[4]
  GI50: > 100 µM
  TGI: > 100 µM
[5]
  GI50: > 100 µM
  TGI: > 100 µM
[6]
  GI50: > 100 µM
  TGI: > 100 µM
[7]
  GI50: > 100 µM
  TGI: > 100 µM
[8]
  GI50: > 100 µM
  TGI: > 100 µM
[9]
  GI50: > 100 µM
  TGI: > 100 µM
[10]
  GI50: > 100 µM
  TGI: > 100 µM

## CS(=O)(=O)CS(=O)CS(=O)CS(=O)CC(NC(=O)CCC(N)C(=O)O)C(=O)O (stereo not given)
[1]
  TGI: > 100 µM
[2]
  TGI: > 100 µM
[3]
  TGI: > 100 µM
[4]
  TGI: > 100 µM
[5]
  TGI: > 100 µM
[6]
  TGI: > 100 µM
[7]
  TGI: > 100 µM
[8]
  TGI: > 100 µM
[9]
  TGI: > 100 µM
[10]
  TGI: > 100 µM

## COC(=O)[C@]12CC[C@@H](C)[C@H](C)[C@@H]1C1=CC[C@@H]3[C@@]4(C)C=C(O)C(=O)C(C)=C4CC[C@@]3(C)[C@]1(C)CC2
[1]
  GI50: 16.9 µM
  TGI: 33.6 µM
[2]
  GI50: 11 µM
  TGI: 27.8 µM
[3]
  GI50: 9.35 µM
  TGI: 23 µM
[4]
  GI50: 18 µM
  TGI: 35.9 µM
[5]
  GI50: 3.92 µM
  TGI: 14.7 µM
[6]
  GI50: 20 µM
  TGI: 42.2 µM
[7]
  GI50: 18.9 µM
  TGI: 37.3 µM
[8]
  GI50: 22.2 µM
  TGI: 57.1 µM
[9]
  GI50: 8.6 µM
  TGI: 23.3 µM
[10]
  GI50: 14.5 µM
  TGI: 31.3 µM

## C=C1CO[C@@H]2C[C@@H]1CCC1(C)OC1CC/C(C)=C/CC[C@@]2(C)O (stereo not given in full)
[1]
  GI50: 37.6 µM
  TGI: > 74.2 µM
[2]
  GI50: 27.8 µM
  TGI: > 73 µM
[3]
  GI50: 24.5 µM
  TGI: > 71 µM
[4]
  GI50: > 58.2 µM
  TGI: > 100 µM
[5]
  GI50: 30.5 µM
  TGI: > 76.9 µM
[6]
  GI50: 44.7 µM
  TGI: > 100 µM
[7]
  GI50: 13.9 µM
  TGI: 30.7 µM
[8]
  GI50: 27.1 µM
  TGI: > 79.8 µM
[9]
  GI50: 43.1 µM
  TGI: > 84 µM
[10]
  GI50: 28.2 µM
  TGI: > 71.2 µM

## O=C(CC(=O)c1ccccc1NC1=Cc2ccccc2C(=O)C1=O)C(=O)NC1=C(Cl)C(=O)c2ccccc2C1=O
[1]
  TGI: 12.5 µM
[2]
  TGI: 6.25 µM
[3]
  TGI: 26.1 µM
[4]
  TGI: 17.9 µM
[5]
  TGI: 4.79 µM
[6]
  TGI: 4.49 µM
[7]
  TGI: 12.1 µM
[8]
  TGI: 5.64 µM
[9]
  TGI: 26.8 µM
[10]
  TGI: 3.97 µM

## O=C1C=C(Nc2nc(C(=O)O)cc(=O)[nH]2)c2ccccc2C1=O
[1]
  TGI: > 100 µM
[2]
  TGI: > 100 µM
[3]
  TGI: > 100 µM
[4]
  TGI: > 100 µM
[5]
  TGI: > 100 µM
[6]
  TGI: > 100 µM
[7]
  TGI: > 100 µM
[8]
  TGI: > 100 µM
[9]
  TGI: > 100 µM
[10]
  TGI: > 100 µM

## CC1(C)CC[C@]2(C(=O)O)CC[C@]3(C)[C@H](CC[C@@H]4[C@@]5(C)CCC(=O)C(C)(C)[C@@H]5CC[C@]43C)[C@H]2[C@H]1OC(=O)C(F)(F)F
[1]
  GI50: 12.4 µM
  TGI: 26.2 µM
[2]
  GI50: 11 µM
  TGI: 28.6 µM
[3]
  GI50: 4.06 µM
  TGI: 16.7 µM
[4]
  GI50: 13.2 µM
  TGI: 27.8 µM
[5]
  GI50: 12.6 µM
  TGI: 29.1 µM
[6]
  GI50: 10.1 µM
  TGI: 25.2 µM
[7]
  GI50: 7.65 µM
  TGI: 29.7 µM
[8]
  GI50: 20.3 µM
  TGI: 83.5 µM
[9]
  GI50: 10.7 µM
  TGI: 22.8 µM
[10]
  GI50: 6.66 µM
  TGI: 20.3 µM

## CCOC(=O)c1cnc2c(cnn2CC)c1NN=C(C)C
[1]
  GI50: 35.6 µM
  TGI: > 100 µM
[2]
  GI50: > 100 µM
  TGI: > 100 µM
[3]
  GI50: 23.3 µM
  TGI: > 100 µM
[4]
  GI50: 65.9 µM
  TGI: > 100 µM
[5]
  GI50: 73.2 µM
  TGI: > 100 µM
[6]
  GI50: 30.4 µM
  TGI: > 100 µM
[7]
  GI50: 57.5 µM
  TGI: > 100 µM
[8]
  GI50: 24.1 µM
  TGI: 87.9 µM
[9]
  GI50: > 100 µM
  TGI: > 100 µM
[10]
  GI50: 45.3 µM
  TGI: > 100 µM

## Nc1nc(Nc2ccc3c(c2)CCC(N2CCCC2)CC3)nn1-c1cc2c(nn1)-c1ccccc1CCC2 (stereo not given)
[1]
  GI50: 1.09 µM
  TGI: 2.39 µM
[2]
  GI50: 1.71 µM
  TGI: 3.72 µM
[3]
  GI50: 0.667 µM
  TGI: 2.6 µM
[4]
  GI50: 1.5 µM
  TGI: 3.11 µM
[5]
  GI50: 1.71 µM
  TGI: 3.27 µM
[6]
  GI50: 1.7 µM
  TGI: 3.36 µM
[7]
  GI50: 1.08 µM
  TGI: 2.63 µM
[8]
  GI50: 1.08 µM
  TGI: 3.66 µM
[9]
  GI50: 1.55 µM
  TGI: 2.97 µM
[10]
  GI50: 1.5 µM
  TGI: 3.07 µM
